# Measurements published in US8937067B2, “Activators of human pyruvate kinase” (The United States of America, as represented by the …, priority 2008, dated 2015).
# Like-named read-outs stand apart in the source and are kept apart here.
# Molecular target: hPK-M2 (Homo sapiens, UniProt P14618)
# Assay: Luminescent pyruvate kinase-luciferase coupled assay (KinaseGlo)
# Type: biochemical
# Conditions: for activation at 57 µM: read-out: hPK, M2 Max. Res.
# Procedure: Luminescent Pyruvate Kinase-Luciferase Coupled Assay.
# Production of a luminescent signal based on the generation of ATP by pyruvate kinase was determined by using the ATP-dependent enzyme firefly luciferase. Three μL of substrate mix (at r.t.) in assay buffer (50 mM imidazole pH 7.2, 50 mM KCl, 7 mM MgCl2, 0.01% tween 20, 0.05% BSA) was dispensed into Kalypsys white solid bottom 1,536 well microtiter plates using a bottle-valve solenoid-based dispenser (Kalypsys). The final concentrations of substrates in the assay were 0.1 mM ADP and 0.5 mM PEP. […] Microtiter plates were incubated at r.t. for 1 hour and 2 uL of luciferase detection mix (Kinase-Glo, Promega at 4° C. protected from light) was added and luminescence was read with a ViewLux (Perkin Elmer) using a 5 second exposure/plate. Data was normalized for AC50 values to control columns containing uninhibited enzyme (n), and AC100 inhibition (i) according the following equation: Activation (%)=[(c−n)/(n−i)]*100 where c=compound, n=DMSO neutral, i=no enzyme control. […] Monitoring of activation was accomplished using enzyme at 3× the final concentration.
# [1] = KinaseGlo, % activation at 57 μM of compound
# [2] = luciferase-coupled assay, read-out: AC50
# [3] = luminescent pyruvate kinase-luciferase coupled assay (KinaseGlo), tables, read-out: hPK, M2 AC50
# hPK-M2, sequence (P14618 whole entry): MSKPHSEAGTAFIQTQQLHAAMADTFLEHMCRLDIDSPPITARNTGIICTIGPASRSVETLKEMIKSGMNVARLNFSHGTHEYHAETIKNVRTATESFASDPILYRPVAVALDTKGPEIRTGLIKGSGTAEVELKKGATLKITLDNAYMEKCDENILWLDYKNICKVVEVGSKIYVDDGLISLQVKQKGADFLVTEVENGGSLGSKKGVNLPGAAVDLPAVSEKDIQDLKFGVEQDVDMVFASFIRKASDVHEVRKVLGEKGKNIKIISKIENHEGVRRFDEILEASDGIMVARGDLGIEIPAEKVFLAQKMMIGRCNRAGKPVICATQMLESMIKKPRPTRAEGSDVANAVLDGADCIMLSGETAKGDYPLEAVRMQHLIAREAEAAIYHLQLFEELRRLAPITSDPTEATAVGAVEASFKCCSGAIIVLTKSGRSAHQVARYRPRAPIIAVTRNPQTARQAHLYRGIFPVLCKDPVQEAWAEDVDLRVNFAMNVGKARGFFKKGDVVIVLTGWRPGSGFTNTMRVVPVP
SMILES,activation at 57 µM [1],AC50 [3],also measured
"O=S(=O)(c1ccc2c(c1)OCCO2)N1CCN(S(=O)(=O)c2ccc3c(c2)OCCO3)CC1 [Compound 2, 1,4-bis(2,3-dihydrobenzo[b][1,4]dioxin-6-ylsulfonyl)piperazine]",89.7 ± 2.2%,–,AC50 [2]: 0.27 µM
"COc1ccc(S(=O)(=O)N2CCN(S(=O)(=O)c3ccc(OC)cc3)CC2)cc1 [Compound 3, 1,4-bis(4-methoxyphenylsulfonyl)piperazine]",87.6 ± 16.2%,0.171 µM,–
"N#Cc1ccc(S(=O)(=O)N2CCN(S(=O)(=O)c3ccc4c(c3)OCCO4)CC2)cc1 [Compound 4, 4-(4-(2,3-dihydrobenzo[b][1,4]dioxin-6-ylsulfonyl)piperazin-1-ylsulfonyl)benzonitrile]",44.1 ± 6.1%,0.029 µM,–
"O=S(=O)(c1ccc(Cl)cc1)N1CCN(S(=O)(=O)c2ccc3c(c2)OCCO3)CC1 [Compound 5, 1-(4-chlorophenylsulfonyl)-4-(2,3-dihydrobenzo[b][1,4]dioxin-6-ylsulfonyl)piperazine]",99.6 ± 2.5%,0.154 µM,–
"O=S(=O)(c1ccc(F)cc1)N1CCN(S(=O)(=O)c2ccc3c(c2)OCCO3)CC1 [Compound 6, 1-(2,3-dihydrobenzo[b][1,4]dioxin-6-ylsulfonyl)-4-(4-fluorophenylsulfonyl)piperazine]",99.7 ± 4.2%,0.094 µM,–
"O=S(=O)(c1ccc2c(c1)OCCO2)N1CCN(S(=O)(=O)c2cc(F)c(F)cc2F)CC1 [Compound 10, 1-(2,3-dihydrobenzo[b][1,4]dioxin-6-ylsulfonyl)-4-(2,4,5-trifluorophenylsulfonyl)piperazine]",105 ± 7.6%,0.09 µM,–
"CCCc1cc(F)c(S(=O)(=O)N2CCN(S(=O)(=O)c3ccc4c(c3)OCCO4)CC2)cc1F [Compound 12, 1-(2,5-difluoro-4-propylphenylsulfonyl)-4-(2,3-dihydrobenzo[b][1,4]dioxin-6-ylsulfonyl)piperazine]",69.2 ± 10.4%,0.757 µM,"PKM2 activation, result in words: diminished activity"
"O=S(=O)(c1ccccc1)N1CCN(S(=O)(=O)c2ccc3c(c2)OCCO3)CC1 [Compound 15, 1-(2,3-dihydrobenzo[b][1,4]dioxin-6-ylsulfonyl)-4-(phenylsulfonyl)piperazine]",108 ± 4.3%,0.202 µM,–
"O=S(=O)(c1cccc(C(F)(F)F)c1)N1CCN(S(=O)(=O)c2ccc3c(c2)OCCO3)CC1 [Compound 16, 1-(2,3-dihydrobenzo[b][1,4]dioxin-6-ylsulfonyl)-4-(3-(trifluoromethyl)phenylsulfonyl)piperazine]",39.3 ± 6.2%,0.209 µM,–
"COc1cccc(S(=O)(=O)N2CCN(S(=O)(=O)c3ccc4c(c3)OCCO4)CC2)c1 [Compound 17, 1-(2,3-dihydrobenzo[b][1,4]dioxin-6-ylsulfonyl)-4-(3-methoxyphenylsulfonyl)piperazine]",90 ± 4.5%,0.113 µM,–
"O=S(=O)(c1ccc2c(c1)OCCO2)N1CCN(S(=O)(=O)c2ccccn2)CC1 [Compound 18, 1-(2,3-dihydrobenzo[b][1,4]dioxin-6-ylsulfonyl)-4-(pyridin-2-ylsulfonyl)piperazine]",103 ± 6.6%,0.542 µM,–
"O=S(=O)(c1ccc2c(c1)OCCO2)N1CCN(S(=O)(=O)c2cccc[n+]2[O-])CC1 [Compound 19, 2-(4-(2,3-dihydrobenzo[b][1,4]dioxin-6-ylsulfonyl)piperazin-1-ylsulfonyl)pyridine 1-oxide]",81.5 ± 3.2%,–,"AC50 [2]: 0.254 ± 0.047 µM; Emax (luciferase-coupled assay, relative to activation by FBP, read-out: maximum response): 104%"
"O=S(=O)(c1c(F)cccc1F)C1CCN(S(=O)(=O)c2ccc3c(c2)OCCO3)CC1 [Compound 20, 4-(2,6-difluorophenylsulfonyl)-1-(2,3-dihydrobenzo[b][1,4]dioxin-6-ylsulfonyl)piperidine]",104 ± 5.1%,0.254 µM,–
"O=S(=O)(c1ccc2c(c1)OCCO2)C1CCN(S(=O)(=O)c2c(F)cccc2F)CC1 [Compound 30, 1-(2,6-difluorophenylsulfonyl)-4-(2,3-dihydrobenzo[b][1,4]dioxin-6-ylsulfonyl)piperidine]",110 ± 5.4%,0.863 µM,–
"O=S(=O)(NCCNS(=O)(=O)c1c(F)cccc1F)c1ccc2c(c1)OCCO2 [Compound 32, N-(2-(2,6-difluorophenylsulfonamido)ethyl)-2,3-dihydrobenzo[b][1,4]dioxine-6-sulfonamide]",60.3 ± 20.6%,–,–
"O=S(=O)(NCCCNS(=O)(=O)c1c(F)cccc1F)c1ccc2c(c1)OCCO2 [Compound 33, N-(3-(2,6-difluorophenylsulfonamido)propyl)-2,3-dihydrobenzo[b][1,4]dioxine-6-sulfonamide]",106 ± 5.1%,3.85 ± 0.53 µM,–
"O=S(=O)(NCCCCNS(=O)(=O)c1c(F)cccc1F)c1ccc2c(c1)OCCO2 [Compound 34, N-(4-(2,6-difluorophenylsulfonamido)butyl)-2,3-dihydrobenzo[b][1,4]dioxine-6-sulfonamide]",113 ± 14.6%,7.97 ± 4.05 µM,–
"O=S(=O)(NCCCCCNS(=O)(=O)c1c(F)cccc1F)c1ccc2c(c1)OCCO2 [Compound 35, N-(5-(2,6-difluorophenylsulfonamido)pentyl)-2,3-dihydrobenzo[b][1,4]dioxine-6-sulfonamide]",114 ± 1.4%,2.33 ± 0.16 µM,–
"O=S(=O)(NCCCCCCNS(=O)(=O)c1c(F)cccc1F)c1ccc2c(c1)OCCO2 [Compound 36, N-(6-(2,6-difluorophenylsulfonamido)hexyl)-2,3-dihydrobenzo[b][1,4]dioxine-6-sulfonamide]",110 ± 3%,4.83 ± 0.31 µM,–
"O=S(=O)(NC1CCN(S(=O)(=O)c2c(F)cccc2F)CC1)c1ccc2c(c1)OCCO2 [Compound 39, N-(1-(2,6-difluorophenylsulfonyl)piperidin-4-yl)-2,3-dihydrobenzo[b][1,4]dioxine-6-sulfonamide]",101 ± 1.9%,3.69 ± 1.26 µM,–
"O=S(=O)(NC1CCN(S(=O)(=O)c2ccc3c(c2)OCCO3)CC1)c1c(F)cccc1F [Compound 40, N-(1-(2,3-dihydrobenzo[b][1,4]dioxin-6-ylsulfonyl)piperidin-4-yl)-2,6-difluorobenzenesulfonamide]",99.6 ± 3.1%,9 ± 4.5 µM,–

# Continued, in another order:
activation at 57 µM [1],AC50 [3],SMILES,also measured
114 ± 4%,0.089 µM,"O=S(=O)(c1ccc2c(c1)OCCO2)N1CCN(S(=O)(=O)c2ccccc2F)CC1 [Compound 8, 1-(2,3-dihydrobenzo[b][1,4]dioxin-6-ylsulfonyl)-4-(2-fluorophenylsulfonyl)piperazine]",–
94.4 ± 2.8%,–,"O=S(=O)(c1ccc2c(c1)OCCO2)N1CCN(S(=O)(=O)c2c(F)cccc2F)CC1 [Compound 9, 1-(2,6-difluorophenylsulfonyl)-4-(2,3-dihydrobenzo[b][1,4]dioxin-6-ylsulfonyl)piperazine]",AC50 [2]: 0.065 ± 0.025 µM
91.8 ± 9.6%,0.028 µM,"COc1cc(F)c(S(=O)(=O)N2CCN(S(=O)(=O)c3ccc4c(c3)OCCO4)CC2)c(F)c1 [Compound 11, 1-(2,6-difluoro-4-methoxyphenylsulfonyl)-4-(2,3-dihydrobenzo[b][1,4]dioxin-6-ylsulfonyl)piperazine]",–
95.3 ± 8.4%,–,"O=S(=O)(c1ccc2c(c1)OCCO2)N1CCN(S(=O)(=O)c2c(F)ccc(O)c2F)CC1 [Compound 13, 3-(4-(2,3-dihydrobenzo[b][1,4]dioxin-6-ylsulfonyl)piperazin-1-ylsulfonyl)-2,4-difluorophenol]",AC50 [2]: 0.052 ± 0.014 µM
113 ± 6.3%,0.124 µM,"O=S(=O)(c1ccc2c(c1)OCCO2)N1CCN(S(=O)(=O)c2ccc(F)cc2F)CC1 [Compound 14, 1-(2,4-difluorophenylsulfonyl)-4-(2,3-dihydrobenzo[b][1,4]dioxin-6-ylsulfonyl)piperazine]",–
61 ± 1.2%,0.191 µM,"O=S(=O)(c1ccc2c(c1)OCO2)N1CCN(S(=O)(=O)c2c(F)cccc2F)CC1 [Compound 24, 1-(benzo[d][1,3]dioxol-5-ylsulfonyl)-4-(2,6-difluorophenylsulfonyl)piperazine]",–
–,2.71 µM,"CN1CCOc2ccc(S(=O)(=O)N3CCN(S(=O)(=O)c4c(F)cccc4F)CC3)cc21 [Compound 25, 6-(4-(2,6-difluorophenylsulfonyl)piperazin-1-ylsulfonyl)-4-methyl-3,4-dihydro-2H-benzo[b][1,4]oxazine]","hPK, M2 Max. Res. [1]: 93.5 ± 5.9%"
119 ± 5.4%,0.093 µM,"CC1(C)CCc2cc(S(=O)(=O)N3CCN(S(=O)(=O)c4c(F)cccc4F)CC3)ccc2O1 [Compound 27, 1-(2,6-difluorophenylsulfonyl)-4-(2,2-dimethylchroman-6-ylsulfonyl)piperazine]",–
91.1 ± 4.7%,0.387 µM,"Cn1ccc2cc(S(=O)(=O)N3CCN(S(=O)(=O)c4c(F)cccc4F)CC3)ccc21 [Compound 28, 5-(4-(2,6-difluorophenylsulfonyl)piperazin-1-ylsulfonyl)-1-methyl-1H-indole]",–
120 ± 7.3%,–,"O=S(=O)(c1ccc2c(c1)OCCO2)N1CCCN(S(=O)(=O)c2c(F)cccc2F)CC1 [Compound 31, 1-(2,6-difluorophenylsulfonyl)-4-(2,3-dihydrobenzo[b][1,4]dioxin-6-ylsulfonyl)-1,4-diazepane]",AC50 [2]: 0.866 µM
